Reference: PubChem BioAssay AID256 (DTP/NCI, 2004)
Values joined by “and” are separate entries in the source; they are usually repeats but may differ in a detail not shown here. Identical values can stand only once. Inconclusive results and toxic doses are left out. Starred links: 1 amine or outer side, 2 acyl side, 3 side chain; linkers in the order of their positions; H or OH if unused. Positions of bridges follow the written chain, without caps; N, C: chain ends. Non-standard residues stand in square brackets, D forms with d. Residues, ends and D or L forms follow the SMILES beside them. Chains are numbered I, II in the order given. Actinocin(9to1) = Cc1c2oc3c(C)ccc(C(=O)[*:1])c3nc-2c(C(=O)[*:2])c(N)c1=O; aThr = C[C@H](O)[C@H](N)C(=O)O; NMeV = CN[C@H](C(=O)O)C(C)C; Sar = CNCC(=O)O

Tested on: CD2F1 mice, L1210 leukemia ip, survival T/C
Test: NCI In Vivo Anticancer Drug Screen. Data for tumor model L1210 Leukemia (intraperitoneal) in CD2F1 (CDF1) mice
Conditions: higher = longer survival
Method in brief: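 Mice carrying a transplanted tumor received test compound or vehicle alone. The value is the measurement in the treated group divided by that in the vehicle-treated control group.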

[1] = endpoint: mean survival time, dose: 100.0 mg/kg/injection, schedule: Q04DX003 (ip), vehicle: saline with Tween-80
[2] = endpoint: mean survival time, dose: 200.0 mg/kg/injection, schedule: Q04DX003 (ip), vehicle: saline with Tween-80
[3] = endpoint: mean survival time, dose: 400.0 mg/kg/injection, schedule: Q04DX003 (ip), vehicle: saline with Tween-80

CN(N=O)C(=O)NC1C(CO)OC(n2ccc(N)nc2=O)C1O (configuration not stated)
T/C (endpoint: mean survival time, dose: 12.5 mg/kg/injection, schedule: Q01DX001 (ip), vehicle: saline with Tween-80): 101 % of control | T/C (endpoint: mean survival time, dose: 25.0 mg/kg/injection, schedule: Q01DX001 (ip), vehicle: saline with Tween-80): 110 % of control | T/C (endpoint: mean survival time, dose: 50.0 mg/kg/injection, schedule: Q01DX001 (ip), vehicle: saline with Tween-80): 98 % of control | T/C (endpoint: mean survival time, dose: 100.0 mg/kg/injection, schedule: Q01DX001 (ip), vehicle: saline with Tween-80): 98 % of control | T/C (endpoint: mean survival time, dose: 200.0 mg/kg/injection, schedule: Q01DX001 (ip), vehicle: saline with Tween-80): 103 % of control | T/C (endpoint: mean survival time, dose: 400.0 mg/kg/injection, schedule: Q01DX001 (ip), vehicle: saline with Tween-80): 108 % of control

CCOc1cc2c(cc1C(C)c1ccc(OC)cc1)OCO2 (configuration not stated)
T/C (endpoint: median survival time, dose: 12.5 mg/kg/injection, schedule: Q01DX009 (ip), vehicle: distilled water + alcohol): 103 % of control | T/C (endpoint: median survival time, dose: 25.0 mg/kg/injection, schedule: Q01DX009 (ip), vehicle: distilled water + alcohol): 93 % of control and 104 % of control | T/C (endpoint: median survival time, dose: 50.0 mg/kg/injection, schedule: Q01DX009 (ip), vehicle: distilled water + alcohol): 115 % of control and 98 % of control | T/C (endpoint: median survival time, dose: 100.0 mg/kg/injection, schedule: Q01DX009 (ip), vehicle: distilled water + alcohol): 98 % of control and 108 % of control | T/C (endpoint: median survival time, dose: 200.0 mg/kg/injection, schedule: Q01DX009 (ip), vehicle: distilled water + alcohol): 111 % of control

CSc1n[nH]c(N=[N+]=[N-])c1C(N)=O
T/C [1]: 96 % of control | T/C [2]: 93 % of control | T/C [3]: 101 % of control

Cn1c(=O)[nH]c2c(nc(-c3ccccc3)n2Cc2ccccc2)c1=O
T/C (endpoint: mean survival time, dose: 7.8 mg/kg/injection, schedule: Q01DX005 (ip), vehicle: other): 95 % of control | T/C (endpoint: mean survival time, dose: 15.6 mg/kg/injection, schedule: Q01DX005 (ip), vehicle: other): 95 % of control | T/C (endpoint: mean survival time, dose: 31.3 mg/kg/injection, schedule: Q01DX005 (ip), vehicle: other): 91 % of control | T/C (endpoint: mean survival time, dose: 62.5 mg/kg/injection, schedule: Q01DX005 (ip), vehicle: other): 91 % of control | T/C (endpoint: mean survival time, dose: 125.0 mg/kg/injection, schedule: Q01DX005 (ip), vehicle: other): 95 % of control

CC1(C)N=C(N)N=C(N)N1c1cccc(CCCc2ccccc2)c1
T/C (endpoint: mean survival time, dose: 6.25 mg/kg/injection, schedule: Q01DX001 (ip), vehicle: saline): 96 % of control

CC(=O)O[C@@H]1C[C@H](C)CC[C@H]1C(C)C
T/C [1]: 98 % of control | T/C [2]: 89 % of control

S=C(Nc1ccccn1)c1ccccn1
T/C (endpoint: mean survival time, dose: 100.0 mg/kg/injection, schedule: Q04DX002 (ip), vehicle: saline with Tween-80): 111 % of control | T/C [1]: 100 % of control | T/C (endpoint: mean survival time, dose: 200.0 mg/kg/injection, schedule: Q04DX002 (ip), vehicle: saline with Tween-80): 95 % of control | T/C [2]: 94 % of control | T/C (endpoint: mean survival time, dose: 400.0 mg/kg/injection, schedule: Q04DX002 (ip), vehicle: saline with Tween-80): 103 % of control | T/C [3]: 103 % of control

Cc1c2oc3c(C)ccc(C(=O)N[C@@H]4C(=O)N[C@H](C(C)C)C(=O)N5CCC[C@H]5C(=O)N(C)CC(=O)N(C)[C@@H](C(C)C)C(=O)O[C@H]4C)c3nc-2c(C(=O)N[C@@H]2C(=O)N[C@H](C(C)C)C(=O)N3CCC[C@H]3C(=O)N(C)CC(=O)N(C)[C@@H](C(C)C)C(=O)O[C@H]2C)c(N)c1=O (I: [aThr][dV]P[Sar][NMeV] / II: [aThr][dV]P[Sar][NMeV]; ester I:1-I:C, II:1-II:C; linker I:N-II:N via Actinocin(9to1))
T/C (endpoint: mean survival time, dose: 0.01 mg/kg/injection, schedule: Q04DX003 (ip), vehicle: saline): 101 % of control | T/C (endpoint: mean survival time, dose: 0.02 mg/kg/injection, schedule: Q04DX003 (ip), vehicle: saline): 105 % of control | T/C (endpoint: mean survival time, dose: 0.03 mg/kg/injection, schedule: Q04DX003 (ip), vehicle: saline): 107 % of control | T/C (endpoint: mean survival time, dose: 0.05 mg/kg/injection, schedule: Q04DX003 (ip), vehicle: saline): 110 % of control | T/C (endpoint: mean survival time, dose: 0.06 mg/kg/injection, schedule: Q01DX009 (ip), vehicle: saline): 99 % of control | T/C (endpoint: mean survival time, dose: 0.1 mg/kg/injection, schedule: Q01DX007 (ip), vehicle: other): 162 % of control | T/C (endpoint: mean survival time, dose: 0.1 mg/kg/injection, schedule: Q01DX009 (ip), vehicle: other): 120 % of control | T/C (endpoint: mean survival time, dose: 0.1 mg/kg/injection, schedule: Q03DX003 (ip), vehicle: other): 165 % of control | T/C (endpoint: mean survival time, dose: 0.2 mg/kg/injection, schedule: Q01DX009 (ip), vehicle: other): 90 % of control | T/C (endpoint: mean survival time, dose: 0.2 mg/kg/injection, schedule: Q01DX009 (ip), vehicle: saline): 88 % of control | T/C (endpoint: mean survival time, dose: 0.2 mg/kg/injection, schedule: Q04DX003 (ip), vehicle: other): 164 % of control | T/C (endpoint: mean survival time, dose: 0.4 mg/kg/injection, schedule: Q01DX001 (ip), vehicle: saline): 114 % of control and 120 % of control | T/C (endpoint: mean survival time, dose: 0.4 mg/kg/injection, schedule: Q03DX003 (ip), vehicle: other): 86 % of control | T/C (endpoint: mean survival time, dose: 0.6 mg/kg/injection, schedule: Q01DX001 (ip), vehicle: saline): 122 % of control | T/C (endpoint: mean survival time, dose: 6.25 micrograms/kg/injection, schedule: Q01DX009 (ip), vehicle: saline + alcohol): 104 % of control | T/C (endpoint: mean survival time, dose: 6.3 micrograms/kg/injection, schedule: Q01DX009 (ip), vehicle: water): 106 % of control | T/C (endpoint: mean survival time, dose: 12.5 micrograms/kg/injection, schedule: Q01DX009 (ip), vehicle: saline + alcohol): 107 % of control | T/C (endpoint: mean survival time, dose: 12.5 micrograms/kg/injection, schedule: Q01DX009 (ip), vehicle: water): 114 % of control and 112 % of control | T/C (endpoint: mean survival time, dose: 25.0 micrograms/kg/injection, schedule: Q01DX009 (ip), vehicle: saline + alcohol): 117 % of control | T/C (endpoint: mean survival time, dose: 25.0 micrograms/kg/injection, schedule: Q01DX009 (ip), vehicle: water): 118 % of control and 120 % of control | T/C (endpoint: mean survival time, dose: 50.0 micrograms/kg/injection, schedule: Q01DX009 (ip), vehicle: saline + alcohol): 109 % of control | T/C (endpoint: mean survival time, dose: 100.0 micrograms/kg/injection, schedule: Q01DX009 (ip), vehicle: water): 115 % of control | T/C (endpoint: median survival time, dose: 0.07 mg/kg/injection, schedule: Q04DX003 (ip), vehicle: saline): 122 % of control | T/C (endpoint: median survival time, dose: 0.13 mg/kg/injection, schedule: Q01DX001 (ip), vehicle: saline): 115 % of control and 117 % of control and 118 % of control | T/C (endpoint: median survival time, dose: 0.25 mg/kg/injection, schedule: Q01DX001 (ip), vehicle: saline): 118 % of control and 112 % of control | T/C (endpoint: median survival time, dose: 0.33 mg/kg/injection, schedule: Q04DX003 (ip), vehicle: saline): 89 % of control | T/C (endpoint: median survival time, dose: 0.5 mg/kg/injection, schedule: Q01DX001 (ip), vehicle: saline): 122 % of control | T/C (endpoint: median survival time, dose: 12.5 micrograms/kg/injection, schedule: Q01DX009 (ip), vehicle: saline + alcohol): 113 % of control | T/C (endpoint: median survival time, dose: 25.0 micrograms/kg/injection, schedule: Q01DX009 (ip), vehicle: saline + alcohol): 117 % of control | T/C (endpoint: median survival time, dose: 200.0 micrograms/kg/injection, schedule: Q01DX009 (ip), vehicle: saline + alcohol): 166 % of control

CN(C)c1nc(N)nc(-c2ccncc2)n1
T/C (endpoint: mean survival time, dose: 12.0 mg/kg/injection, schedule: Q04DX002 (ip), vehicle: saline): 100 % of control | T/C (endpoint: mean survival time, dose: 24.0 mg/kg/injection, schedule: Q04DX002 (ip), vehicle: saline): 96 % of control | T/C (endpoint: mean survival time, dose: 48.0 mg/kg/injection, schedule: Q04DX002 (ip), vehicle: saline): 92 % of control

[Br][Pt+2][Br].[NH-]c1ccc(F)cc1.[NH-]c1ccc(F)cc1
T/C (endpoint: mean survival time, dose: 3.13 mg/kg/injection, schedule: Q04DX003 (ip), vehicle: distilled water + Tween-80): 101 % of control | T/C (endpoint: mean survival time, dose: 6.25 mg/kg/injection, schedule: Q04DX003 (ip), vehicle: distilled water + Tween-80): 104 % of control | T/C (endpoint: mean survival time, dose: 12.5 mg/kg/injection, schedule: Q04DX003 (ip), vehicle: distilled water + Tween-80): 104 % of control | T/C (endpoint: mean survival time, dose: 25.0 mg/kg/injection, schedule: Q04DX003 (ip), vehicle: distilled water + Tween-80): 108 % of control | T/C (endpoint: mean survival time, dose: 50.0 mg/kg/injection, schedule: Q04DX003 (ip), vehicle: distilled water + Tween-80): 110 % of control | T/C (endpoint: mean survival time, dose: 100.0 mg/kg/injection, schedule: Q04DX003 (ip), vehicle: distilled water + Tween-80): 113 % of control

C=C(C)CCCC(C)C(O)C=O (configuration not stated)
T/C (endpoint: mean survival time, dose: 100.0 mg/kg/injection, schedule: Q01DX001 (ip), vehicle: saline): 98 % of control | T/C (endpoint: mean survival time, dose: 200.0 mg/kg/injection, schedule: Q01DX001 (ip), vehicle: saline): 95 % of control | T/C (endpoint: mean survival time, dose: 400.0 mg/kg/injection, schedule: Q01DX001 (ip), vehicle: saline): 95 % of control

COC(=O)C(NC(C)=O)C(O)Cl (configuration not stated)
T/C (endpoint: mean survival time, dose: 100.0 mg/kg/injection, schedule: Q04DX003 (ip), vehicle: saline): 102 % of control | T/C (endpoint: mean survival time, dose: 200.0 mg/kg/injection, schedule: Q04DX003 (ip), vehicle: saline): 100 % of control | T/C (endpoint: mean survival time, dose: 400.0 mg/kg/injection, schedule: Q04DX003 (ip), vehicle: saline): 98 % of control

N#C/C(C(=S)S)=C(/O)c1ccccc1
T/C (endpoint: mean survival time, dose: 25.0 mg/kg/injection, schedule: Q01DX009 (ip), vehicle: saline with Tween-80): 102 % of control | T/C (endpoint: mean survival time, dose: 50.0 mg/kg/injection, schedule: Q01DX009 (ip), vehicle: saline with Tween-80): 101 % of control | T/C (endpoint: mean survival time, dose: 100.0 mg/kg/injection, schedule: Q01DX009 (ip), vehicle: saline with Tween-80): 102 % of control | T/C [1]: 94 % of control
